Source: the NIST ThermoML archive (doi:10.1016/j.jct.2015.07.014)

Conditions: Fluid (supercritical or subcritical phases), Buoyancy - hydrostatic balance with magnetic suspension - one sinker

O=C=O [carbon dioxide]
Conditions | mass density [kg/m3]
323.2 K, 10968 kPa | 497.981
323.24 K, 14966 kPa | 698.2
323.24 K, 18962 kPa | 770.445
323.24 K, 24961 kPa | 833.514
323.25 K, 12967 kPa | 633.58
323.25 K, 16965 kPa | 739.597
323.25 K, 22962 kPa | 815.681
323.25 K, 26959 kPa | 849.181
323.25 K, 28037 kPa | 856.967
323.26 K, 20966 kPa | 795.018
